Patent publication EP4732839A1, “USE OF COMPOUND IN TREATMENT OF LIVER DISEASES” (priority 2023, dated 2025)
≈ marks a conversion by molar mass, not a printed value.

Columns and labels:
[1] = format: in vivo, C57BL/6J wild-type female mice
Protocol: C57BL/6J wild-type female mice (6 weeks old) were randomly grouped. After administration at different doses, whole blood and liver tissues of the mice were separately collected at 1 h, 2 h, and 4 h for detection of a plurality of parameters to evaluate the effect of the drugs on the liver.
Liver tissues and blood were collected at 1 h, 2 h, and 4 h after single dosing.
The supernatant was collected and stored (-20 °C); • (3) IFN-α, IP-10, IL-6, and TNF-α were detected using an ELISA kit. • (C) Remaining liver tissue-HE staining and pathological evaluation. • (D) 1/2 blood (whole blood)-liver function parameter detection: AST (aspartate aminotransferase), ALT (alanine aminotransferase/glutamate pyruvate transaminase), ALP (alkaline phosphatase), ALB (albumin), and GGT (γ-glutamyl transferase). • (E) 1/2 blood-serum preparation-reserve for ELISA.

hepatitis B virus (HBV) = test: Anti-hepatitis B virus activity in HBV-infected primary human hepatocytes; format: cell-based, HBV type B; details: HBV-infected PHHs
Protocol: The culture supernatant from one donor (donor 1) was selected to stimulate HBV-infected primary hepatocytes (PHHs), and interferon α and nucleoside analog entecavir (ETV) were selected as positive controls. The experimental procedures were as follows (FIG. 14a), and the detailed procedures were as follows: On day -1, cryopreserved PHHs were thawed and adjusted to a density of 6 × 10^5 cells/mL, and the PHHs were seeded into a 48-well plate at 0.22 mL/well.
On day 0, the PHHs were infected with HBV type B at 600 GE/cells.
On day 1, the culture medium was replaced with a fresh one, and reference compounds ETV and Peg-IFN-α2a (Pegasys-Roche) were added to the cells to treat the cells. The reference compounds ETV and Peg-IFN-α2a for the PHHs were each prepared at one concentration, with three replicate wells.
The PBMC supernatants were each prepared at 4 test concentrations, diluted at a ratio of 1:4, and then added to the cells. Three replicate wells were made for each test condition. The culture medium was replaced with a fresh culture medium containing the PBMC supernatants and the reference compounds on days 5, 7, 9, and 11. On day 13, the cell supernatants were collected and the cell viability was detected using CCK-8.
The content of HBV DNA in the supernatants was determined by qPCR according to the kit instructions. HBsAg and HBeAg levels in the supernatants were determined by ELISA.

physchem = details: phosphate buffer, pH 7.4, aqueous buffer
in vivo = test: in vivo
Protocol: C57BL/6 mice, 8 weeks old, female/male, 27, supplier: SPF (Beijing) Biotechnology Co., Ltd.
The body weight of the animals was measured and recorded daily.
All groups were subjected to clinical observations before administration and 1 to 2 h after administration, and additional observations were performed if necessary. Deaths and mortality were checked twice daily. The observations should include, but are not limited to, the following: fur condition, activity, mental status, vomiting, diarrhea, and abnormal secretions around the eyes. All animals should be observed on the day of necropsy, and any abnormal findings should be recorded.
The rectal temperature of all animals was measured and recorded at 0 h before administration and at 2 h, 4 h, 8 h and 24 h after administration.
The experiment was terminated on day 7 after administration. A gross necropsy was performed to examine abdominal and thoracic organs for lesions, and the spleen and liver were collected for weighing.

[2] = test system: Peripheral blood mononuclear cells (hPBMCs); test: Cytokine secretion after stimulation of PBMCs; details: hPBMCs from 3 donors, 24 h of stimulation
[3] = Liver microsome metabolic stability (murine); details: Murine liver microsomes, 1 µM compound, 1 mg/mL, NADPH, 37 °C
Protocol: The metabolic stability of the compounds in in vitro liver microsomes was evaluated. The procedures and steps were as follows: At 37 °C, 1 µM of the compounds was incubated in 1 mg/mL liver microsomes. The reaction system was a 0.1 M potassium phosphate buffer (pH 7.4) containing 3 mmol/L MgCl2 and 1 mmol/L NADPH. At the beginning of the reaction, the small molecules and the liver microsomes were pre-incubated at 37 °C for 10 min, and subsequently a cofactor NADPH was added to initiate the metabolic reaction. The reaction was quenched at 0 min, 5 min, 10 min, 20 min, 30 min, and 60 min using three volumes of ice-cold methanol containing an internal standard (200 nM labetalol). After incubation at room temperature for 10 min, the samples were centrifuged at 4000 rpm at 4 °C for 20 min, and the supernatants were collected, diluted with chromatography-grade purified water in a 1:1 ratio, and then subjected to quantitative analysis. […] After a 6-minute chromatographic separation on a C18 column (50 × 2.1 mm; 2.6 µm) under a gradient mobile phase of 0.1% formic acid in water, the peaks corresponding to specified ionic signals were detected. […]
The metabolic half-life (T1/2) and the metabolic clearance rate (CLint(mic)) (µL/min/mg) were calculated using a first-order kinetic equation.

[4] = C57BL/6 mice, single intragastric administration

COCCNc1nc(N)nc2ccc(Cc3ccc(CN4CCOCC4)cc3)nc12 [Compound II]
AST levels ([1]; all administration groups, no statistically significant differences): exceeded the normal reference range | ALP levels ([1]; all dose groups): within the normal reference value range | GGT levels ([1]; all dose groups): significantly lower than that of the control group | ALB level ([1]; at 2 h and 4 h): significantly lower than that of the control group | ALT elevation by clinical adverse reaction grading ([1]; single administration, Grade 1 AE = ALT exceeding three times the normal value): did not result in ALT elevation to grade 1 AE | ALT ([1]; whole blood, 3/10/20 mpk i.g. single dose, 1 h, 2 h, 4 h): increased in all groups | activity for inhibiting HBV DNA compared with Peg-IFN-α2a (100 IU/mL) (hepatitis B virus (HBV); PBMC supernatant (donor 1)): comparable | activity for reducing hepatitis B surface antigen compared with Peg-IFN-α2a (100 IU/mL) (hepatitis B virus (HBV); PBMC supernatant (donor 1)): slightly stronger | anti-HBV activity compared with GS-9688 (hepatitis B virus (HBV); PBMC supernatant (donor 1)): significantly stronger | levels of surface antigens HBeAg and HBsAg (hepatitis B virus (HBV); agonist-treated PBMC supernatant (donor 1) or reference compound, supernatant ELISA day 13): significantly reduced | level of HBV DNA (hepatitis B virus (HBV); agonist-treated PBMC supernatant (donor 1) or reference compound, supernatant qPCR day 13): significantly reduced | solubility (physchem): 1010 µM (≈ 413 µg/mL) | Cage-side observation (in vivo; 20 mg/kg, group 6, male animal No. 35, day 2): white secretions around the eyes | rectal temperature (in vivo; 2 h after treatment, significant difference vs vehicle group, returned to normal 4 h, 8 h and 24 h): decreased | Adverse reactions at maximum tolerated dose/probability (in vivo; [4]): White secretion around the eyes (1/6) | Weight loss at maximum tolerated dose: whether recovered (in vivo; [4]): Yes | Weight loss rate at maximum tolerated dose (in vivo; [4]): 14% | With or without mouse death (in vivo; [4]): No | body weight (in vivo; male and female animals, 10-40 mg/kg single administration, began to recover from day 3 to day 7): decreased after the single administration | MTD at 168 h (in vivo; mouse, in vivo, po): 40 mg/kg | IFN-α stimulating activity [2]: strong | IFN-α, IFN-γ, and IL-1240 secretion ([2]; 4 concentrations, compared with GS-9688): significantly stronger activity and magnitude | k [3]: 0.0460 L/min
